Assay results published in patent publication US20140051679A1, “KINASE INHIBITORS AND METHOD OF TREATING CANCER WITH SAME” (UNIVERISTY HEALTH NETWORKS, priority 2011, published 2014).

What was measured:
[1] = tested on: MDA-MB-468 breast cancer cells; assay: Cell growth inhibition, Sulforhodamine B assay, MDA-MB-468; type: cell-based; conditions: Homo sapiens, 120 h, 5 days culture, SRB assay, read-out: Cell Line GI50 Range MDA-MB-468
human TTK = target: T1, human TTK (Homo sapiens, UniProt P33981); assay: TTK inhibition assay (indirect ELISA); type: biochemical; conditions: GST-TTK 0.68 nM, 16 μM ATP; read-out: IC50 Ranges TTK
T1 construct: amino terminal GST fusion of full length human TTK; purchased Invitrogen
T1 sequence (P33981 1-857): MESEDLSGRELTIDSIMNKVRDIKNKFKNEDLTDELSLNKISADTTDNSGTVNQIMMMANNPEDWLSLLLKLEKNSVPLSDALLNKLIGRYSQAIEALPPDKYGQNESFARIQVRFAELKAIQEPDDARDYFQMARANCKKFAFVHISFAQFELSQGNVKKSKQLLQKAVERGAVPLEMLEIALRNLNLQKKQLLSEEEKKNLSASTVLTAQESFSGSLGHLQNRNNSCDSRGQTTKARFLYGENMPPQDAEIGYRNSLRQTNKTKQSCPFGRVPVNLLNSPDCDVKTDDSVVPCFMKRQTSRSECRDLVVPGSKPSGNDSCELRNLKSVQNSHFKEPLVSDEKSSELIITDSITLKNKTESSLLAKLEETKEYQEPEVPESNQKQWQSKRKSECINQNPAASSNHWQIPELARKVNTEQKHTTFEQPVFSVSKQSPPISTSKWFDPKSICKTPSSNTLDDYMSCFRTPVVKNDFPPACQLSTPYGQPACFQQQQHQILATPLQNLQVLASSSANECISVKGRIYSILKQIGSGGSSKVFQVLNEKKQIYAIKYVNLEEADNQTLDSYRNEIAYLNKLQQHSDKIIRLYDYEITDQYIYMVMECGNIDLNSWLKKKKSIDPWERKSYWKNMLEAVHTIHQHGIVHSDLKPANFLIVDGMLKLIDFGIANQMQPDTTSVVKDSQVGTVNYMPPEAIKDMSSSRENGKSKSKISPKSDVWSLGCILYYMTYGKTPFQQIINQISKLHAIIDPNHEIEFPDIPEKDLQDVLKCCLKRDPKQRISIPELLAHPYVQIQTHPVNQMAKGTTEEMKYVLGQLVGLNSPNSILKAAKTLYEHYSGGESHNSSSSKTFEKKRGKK

[2] = tested on: OVCAR-3 ovarian cancer cells; assay: Cell growth inhibition, Sulforhodamine B assay, OVCAR-3; type: cell-based; conditions: Homo sapiens, 120 h, 5 days culture, SRB assay, read-out: Cell Line GI50 Range OVCAR-3
[3] = tested on: HCT116 colon cancer cells; assay: Cell growth inhibition, Sulforhodamine B assay, HCT116; type: cell-based; conditions: Homo sapiens, HCT-116, 120 h, 5 days culture, SRB assay, read-out: Cell Line GI50 Range HCT116
HT29 colon cancer cells = assay: Cell growth inhibition, Sulforhodamine B assay, HT29; type: cell-based; conditions: Homo sapiens, HT-29, 120 h, 5 days culture, SRB assay, read-out: Cell Line GI50 Range HT29
[4] = tested on: MDA-MB-231 breast cancer cells; assay: Cell growth inhibition, Sulforhodamine B assay, MDA-MB-231; type: cell-based; conditions: Homo sapiens, 120 h, 5 days culture, SRB assay, read-out: Cell Line GI50 Range MDA-MB-231
human PLK4 = target: T2, human PLK4 (Homo sapiens, UniProt O00444); assay: PLK4 inhibition assay (indirect ELISA); type: biochemical; conditions: GST-PLK4 4 nM, 15 μM ATP; read-out: IC50 Ranges PLK4
T2 construct: amino terminal GST fusion of residues 1-391 of human PLK4; made in house; host or cells: E. coli
T2 sequence (O00444 1-391): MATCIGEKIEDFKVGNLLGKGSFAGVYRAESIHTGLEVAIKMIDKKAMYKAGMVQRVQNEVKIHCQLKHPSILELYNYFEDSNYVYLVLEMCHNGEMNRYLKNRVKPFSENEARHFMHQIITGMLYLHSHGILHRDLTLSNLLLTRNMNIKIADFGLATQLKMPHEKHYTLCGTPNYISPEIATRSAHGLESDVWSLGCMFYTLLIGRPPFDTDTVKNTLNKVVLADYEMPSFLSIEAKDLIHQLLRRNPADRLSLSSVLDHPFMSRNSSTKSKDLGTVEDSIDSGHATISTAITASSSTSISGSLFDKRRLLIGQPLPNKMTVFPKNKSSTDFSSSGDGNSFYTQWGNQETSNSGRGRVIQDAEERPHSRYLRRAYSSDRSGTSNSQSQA
Procedure, shortened: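 Dephosphorylated GST-tagged human PLK4 (residues 1-391, E. coli), 4 nM, preincubated 15 min with compound, then reacted 30 min with 15 μM ATP on MBP-coated plates (50 mM HEPES pH 7.5, 10 mM MgCl2, 0.01% Brij 35). Phospho-MBP detected by antibody ELISA at 450 nm. Tested at 10 μM or 10-point titrations; IC50 from 4-parameter logistic fit.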

Row | GI50 [1] | IC50 (human TTK) | GI50 [2] | GI50 [3] | GI50 (HT29 colon cancer cells) | GI50 [4] | IC50 (human PLK4) | Compound
1 | ≤ 5 µM | ≤ 5 µM | 5 to 20 µM | ≤ 5 µM | ≤ 5 µM | ≤ 5 µM | ≤ 5 µM | CN1CCC(Oc2ccc(-c3n[nH]c4ccc(NC(=O)Nc5ccccc5F)cc34)cc2)CC1 [Example A56, 1-(2-fluorophenyl)-3-(3-(4-((1-methylpiperidin-4-yl)oxy)phenyl)-1H-indazol-5-yl)urea]
2 | ≤ 5 µM | ≤ 5 µM | 5 to 20 µM | ≤ 5 µM | ≤ 5 µM | ≤ 5 µM | ≤ 5 µM | O=C(Nc1ccc2[nH]nc(-c3ccc(N4CCOCC4)c(F)c3)c2c1)C(c1ccsc1)N1CCCC1 (stereo not drawn) [Example A60, N-(3-(3-fluoro-4-morpholinophenyl)-1H-indazol-5-yl)-2-(pyrrolidin-1-yl)-2-(thiophen-3-yl)acetamide]
3 | 5 to 20 µM | ≤ 5 µM | 20 to 50 µM | ≤ 5 µM | ≤ 5 µM | 5 to 20 µM | ≤ 5 µM | Cc1cc(-c2n[nH]c3ccc(C(=O)NC(c4ccccc4)C4CC4)cc23)ccc1N1CCOCC1 (stereo not drawn) [Example A64, N-(cyclopropyl(phenyl)methyl)-3-(3-methyl-4-morpholinophenyl)-1H-indazole-5-carboxamide]
4 | 5 to 20 µM | ≤ 5 µM | 5 to 20 µM | ≤ 5 µM | ≤ 5 µM | 5 to 20 µM | ≤ 5 µM | O=C(Nc1ccc2[nH]nc(-c3ccc(N4CCOCC4)cc3)c2c1)Nc1ccccc1Cl [Example A66, 1-(2-chlorophenyl)-3-(3-(4-morpholinophenyl)-1H-indazol-5-yl)urea]
5 | ≤ 5 µM | ≤ 5 µM | 5 to 20 µM | ≤ 5 µM | ≤ 5 µM | ≤ 5 µM | ≤ 5 µM | C[C@@H](NC(=O)c1ccc2[nH]nc(-c3ccc(N4CCOCC4)cc3)c2c1)C1CCCCC1 [Example A48, (R)—N-(1-cyclohexylethyl)-3-(4-morpholinophenyl)-1H-indazole-5-carboxamide]
6 | ≤ 5 µM | ≤ 5 µM | 5 to 20 µM | ≤ 5 µM | ≤ 5 µM | ≤ 5 µM | ≤ 5 µM | O=C(NC(c1ccccc1)C1CC1)c1ccc2[nH]nc(-c3ccc(N4CCOCC4)c(F)c3)c2c1 (stereo not drawn) [Example A65, N-(cyclopropyl(phenyl)methyl)-3-(3-fluoro-4-morpholinophenyl)-1H-indazole-5-carboxamide]
7 | ≤ 5 µM | ≤ 5 µM | ≤ 5 µM | ≤ 5 µM | ≤ 5 µM | ≤ 5 µM | ≤ 5 µM | CN1CCC(Oc2ccc(-c3n[nH]c4ccc(NC(=O)Nc5ccccc5Cl)cc34)cc2)CC1 [Example A62, 1-(2-chlorophenyl)-3-(3-(4-((1-methylpiperidin-4-yl)oxy)phenyl)-1H-indazol-5-yl)urea]
8 | 5 to 20 µM | ≤ 5 µM | 5 to 20 µM | ≤ 5 µM | ≤ 5 µM | 5 to 20 µM | ≤ 5 µM | O=C(NC(c1ccccc1)C1CC1)c1ccc2[nH]nc(-c3cccc(N4CCOCC4)c3)c2c1 (stereo not drawn) [Example A61, N-(cyclopropyl(phenyl)methyl)-3-(3-morpholinophenyl)-1H-indazole-5-carboxamide]
9 | ≤ 5 µM | ≤ 5 µM | ≤ 5 µM | ≤ 5 µM | ≤ 5 µM | ≤ 5 µM | ≤ 5 µM | C[C@H](NC(=O)c1ccc2[nH]nc(-c3ccc(N4CCOCC4)cc3)c2c1)C1CCCCC1 [Example A40, (S)—N-(1-cyclohexylethyl)-3-(4-morpholinophenyl)-1H-indazole-5-carboxamide]
10 | ≤ 5 µM | ≤ 5 µM | 20 to 50 µM | ≤ 5 µM | ≤ 5 µM | 5 to 20 µM | ≤ 5 µM | CN1CCC(Oc2ccc(-c3n[nH]c4ccc(C(=O)NCC(C)(C)N5CCOCC5)cc34)cc2)CC1 [Example A74, N-(2-methyl-2-morpholinopropyl)-3-(4-((1-methylpiperidin-4-yl)oxy)phenyl)-1H-indazole-5-carboxamide]
11 | ≤ 5 µM | ≤ 5 µM | 5 to 20 µM | ≤ 5 µM | ≤ 5 µM | ≤ 5 µM | ≤ 5 µM | CN1CCC(Oc2ccc(-c3n[nH]c4ccc(NC(=O)N5CCCc6ccccc65)cc34)cc2)CC1 [Example A73, N-(3-(4-((1-methylpiperidin-4-yl)oxy)phenyl)-1H-indazol-5-yl)-3,4-dihydroquinoline-1(2H)-carboxamide]
12 | ≤ 5 µM | ≤ 5 µM | ≤ 5 µM | ≤ 5 µM | ≤ 5 µM | ≤ 5 µM | ≤ 5 µM | O=C(Nc1ccc2[nH]nc(-c3ccc(NC4CCCCC4)cc3)c2c1)C(c1ccsc1)N1CCCC1 (stereo not drawn) [Example A68, N-(3-(4-(cyclohexylamino)phenyl)-1H-indazol-5-yl)-2-(pyrrolidin-1-yl)-2-(thiophen-3-yl)acetamide]
13 | ≤ 5 µM | ≤ 5 µM | ≤ 5 µM | ≤ 5 µM | ≤ 5 µM | ≤ 5 µM | ≤ 5 µM | CN1CCC(Oc2ccc(-c3n[nH]c4ccc(C(=O)N[C@@H]5CCCc6ccccc65)cc34)cc2)CC1 [Example A26, (R)-3-(4-((1-methylpiperidin-4-yl)oxy)phenyl)-N-(1,2,3,4-tetrahydronaphthalen-1-yl)-1H-indazole-5-carboxamide]
14 | ≤ 5 µM | ≤ 5 µM | 5 to 20 µM | ≤ 5 µM | ≤ 5 µM | ≤ 5 µM | ≤ 5 µM | Cc1cc(-c2n[nH]c3ccc(NC(=O)C(c4ccsc4)N4CCCC4)cc23)ccc1N1CCOCC1 (stereo not drawn) [Example A59, N-(3-(3-methyl-4-morpholinophenyl)-1H-indazol-5-yl)-2-(pyrrolidin-1-yl)-2-(thiophen-3-yl)acetamide]
15 | ≤ 5 µM | ≤ 5 µM | 5 to 20 µM | ≤ 5 µM | ≤ 5 µM | ≤ 5 µM | ≤ 5 µM | C[C@@H](NC(=O)c1ccc2[nH]nc(-c3ccc(N4CCOCC4)cc3)c2c1)c1cccs1 [Example A53, (R)-3-(4-morpholinophenyl)-N-(1-(thiophen-2-yl)ethyl)-1H-indazole-5-carboxamide]
